Assay results published in US20250084039A1, “4-SUBSTITUTED AMINOISOQUINOLINE DERIVATIVES” (Purdue Research Foundation, priority 2016, published 2025).
Several values for one entry are separate records, joined by “and”; a condition that tells them apart may be missing. Equal entries are not always repeated. Where two headings read alike, the source gives them in different places. Values belong to the compound of their own block, whether it stands above or below them.

Assays:
IRR/INSRR = IRR/INSRR (Homo sapiens (Human), UniProt P14616); test: Reaction Biology HotSpot kinase assay; assay type: biochemical; conditions: 500 nM compound; for inhibition at 0.5 µM: read-out: Percentage kinase inhibition IRR/INSRR
Outline: (§1)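 HotSpot 33P transfer format. Enzyme, substrate and 500 nM test compound sit together for 20 min, then labelled and unlabelled ATP totalling 100 μM are added and phosphorylation proceeds for 2 h at room temperature. Products are captured on P81 cellulose paper, and activity is expressed relative to DMSO.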

CDK6/cyclin D3 = CDK6/cyclin D3 (Homo sapiens (Human), UniProt Q00534); test: Reaction Biology HotSpot kinase assay; assay type: biochemical; conditions: 500 nM compound; for inhibition at 0.5 µM: read-out: Percentage kinase inhibition CDK6/cyclin D3
Outline: as §1

Aurora A = Aurora A (Homo sapiens (Human), UniProt O14965); test: Reaction Biology HotSpot kinase assay; assay type: biochemical; conditions: 500 nM compound; for inhibition at 0.5 µM: read-out: Percentage kinase inhibition Aurora A
Outline: (§2)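 Each compound was tested at 500 nM, with 33P incorporation from ATP (100 μM final, including [γ-33P]ATP) measured by P81 paper capture after a 2 h room-temperature reaction.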

EPHA3 = EPHA3 (Homo sapiens (Human), UniProt P29320); test: Reaction Biology HotSpot kinase assay; assay type: biochemical; conditions: 500 nM compound; for inhibition at 0.5 µM: read-out: Percentage kinase inhibition EPHA3
EPHA3, sequence (P29320 21-983): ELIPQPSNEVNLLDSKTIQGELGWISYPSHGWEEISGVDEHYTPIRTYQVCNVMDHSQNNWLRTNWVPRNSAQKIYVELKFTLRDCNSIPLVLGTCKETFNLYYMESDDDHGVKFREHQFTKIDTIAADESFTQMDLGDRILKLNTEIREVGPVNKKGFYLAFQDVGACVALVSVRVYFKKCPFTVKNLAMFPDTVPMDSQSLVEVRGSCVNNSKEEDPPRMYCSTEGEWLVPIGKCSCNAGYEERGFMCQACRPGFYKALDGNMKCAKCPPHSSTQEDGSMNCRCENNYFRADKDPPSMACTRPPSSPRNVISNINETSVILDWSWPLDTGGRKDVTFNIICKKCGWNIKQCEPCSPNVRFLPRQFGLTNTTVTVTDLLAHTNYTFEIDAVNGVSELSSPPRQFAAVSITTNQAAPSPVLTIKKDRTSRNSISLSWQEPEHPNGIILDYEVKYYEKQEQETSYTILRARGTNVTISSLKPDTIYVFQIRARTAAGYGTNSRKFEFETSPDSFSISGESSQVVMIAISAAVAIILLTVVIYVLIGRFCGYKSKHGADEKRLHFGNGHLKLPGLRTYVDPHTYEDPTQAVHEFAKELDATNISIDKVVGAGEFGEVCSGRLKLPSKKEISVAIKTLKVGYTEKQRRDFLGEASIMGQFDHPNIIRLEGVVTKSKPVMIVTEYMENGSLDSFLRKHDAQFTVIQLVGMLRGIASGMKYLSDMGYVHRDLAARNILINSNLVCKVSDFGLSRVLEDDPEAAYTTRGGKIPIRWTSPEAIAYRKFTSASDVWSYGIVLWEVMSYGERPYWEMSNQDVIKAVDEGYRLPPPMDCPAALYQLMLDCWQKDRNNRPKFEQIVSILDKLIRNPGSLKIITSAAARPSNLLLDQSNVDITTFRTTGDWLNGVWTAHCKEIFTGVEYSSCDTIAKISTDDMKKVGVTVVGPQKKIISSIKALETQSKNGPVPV
Outline: as §1

BLK = BLK (Homo sapiens (Human), UniProt P51451); test: Reaction Biology HotSpot kinase assay; assay type: biochemical; conditions: 500 nM compound; for inhibition at 0.5 µM: read-out: Percentage kinase inhibition BLK
BLK, sequence (P51451 whole entry): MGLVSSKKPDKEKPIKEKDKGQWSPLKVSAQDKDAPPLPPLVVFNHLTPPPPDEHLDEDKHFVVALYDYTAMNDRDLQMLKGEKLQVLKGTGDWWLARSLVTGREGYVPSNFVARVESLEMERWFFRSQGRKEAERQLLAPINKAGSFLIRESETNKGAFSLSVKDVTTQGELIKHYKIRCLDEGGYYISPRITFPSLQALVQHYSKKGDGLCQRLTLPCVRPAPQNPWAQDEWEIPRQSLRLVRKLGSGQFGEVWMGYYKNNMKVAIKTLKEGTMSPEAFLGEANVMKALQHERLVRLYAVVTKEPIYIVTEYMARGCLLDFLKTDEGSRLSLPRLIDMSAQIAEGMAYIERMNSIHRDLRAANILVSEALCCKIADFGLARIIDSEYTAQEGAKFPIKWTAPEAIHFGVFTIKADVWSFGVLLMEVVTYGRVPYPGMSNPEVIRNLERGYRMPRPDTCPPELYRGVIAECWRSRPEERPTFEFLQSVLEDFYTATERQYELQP
Outline: as §2

ROCK1 = ROCK1 (Homo sapiens (Human), UniProt Q13464); test: Reaction Biology HotSpot kinase assay; assay type: biochemical; conditions: 500 nM compound; for inhibition at 0.5 µM: read-out: Percentage kinase inhibition ROCK1
Outline: as §1

LYN B = LYN B (Homo sapiens (Human), UniProt P07948); test: Reaction Biology HotSpot kinase assay; assay type: biochemical; conditions: 500 nM compound; for inhibition at 0.5 µM: read-out: Percentage kinase inhibition LYN B
LYN B, sequence (P07948 other isoform, or with tags, fused parts or gaps): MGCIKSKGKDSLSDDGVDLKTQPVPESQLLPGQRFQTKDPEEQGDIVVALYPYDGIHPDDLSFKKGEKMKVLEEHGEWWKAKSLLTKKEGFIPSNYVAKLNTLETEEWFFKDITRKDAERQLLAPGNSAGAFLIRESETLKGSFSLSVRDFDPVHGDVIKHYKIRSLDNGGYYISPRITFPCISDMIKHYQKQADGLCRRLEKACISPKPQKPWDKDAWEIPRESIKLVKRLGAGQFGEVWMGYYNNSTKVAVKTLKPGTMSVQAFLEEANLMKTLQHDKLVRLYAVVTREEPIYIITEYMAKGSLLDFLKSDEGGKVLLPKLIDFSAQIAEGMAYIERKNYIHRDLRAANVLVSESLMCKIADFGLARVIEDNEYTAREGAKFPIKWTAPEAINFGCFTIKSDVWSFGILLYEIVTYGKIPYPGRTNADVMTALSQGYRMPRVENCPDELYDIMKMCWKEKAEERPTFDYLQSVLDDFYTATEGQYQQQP
Outline: as §1

HIPK1 = HIPK1 (Homo sapiens (Human), UniProt Q86Z02); test: Reaction Biology HotSpot kinase assay; assay type: biochemical; conditions: 500 nM compound; for inhibition at 0.5 µM: read-out: Percentage kinase inhibition HIPK1
Outline: as §1

RET = RET (Homo sapiens (Human), UniProt P07949); test: Reaction Biology HotSpot kinase assay; assay type: biochemical; conditions: 500 nM compound; for inhibition at 0.5 µM: read-out: Percentage kinase inhibition RET
RET, sequence (P07949 29-1114): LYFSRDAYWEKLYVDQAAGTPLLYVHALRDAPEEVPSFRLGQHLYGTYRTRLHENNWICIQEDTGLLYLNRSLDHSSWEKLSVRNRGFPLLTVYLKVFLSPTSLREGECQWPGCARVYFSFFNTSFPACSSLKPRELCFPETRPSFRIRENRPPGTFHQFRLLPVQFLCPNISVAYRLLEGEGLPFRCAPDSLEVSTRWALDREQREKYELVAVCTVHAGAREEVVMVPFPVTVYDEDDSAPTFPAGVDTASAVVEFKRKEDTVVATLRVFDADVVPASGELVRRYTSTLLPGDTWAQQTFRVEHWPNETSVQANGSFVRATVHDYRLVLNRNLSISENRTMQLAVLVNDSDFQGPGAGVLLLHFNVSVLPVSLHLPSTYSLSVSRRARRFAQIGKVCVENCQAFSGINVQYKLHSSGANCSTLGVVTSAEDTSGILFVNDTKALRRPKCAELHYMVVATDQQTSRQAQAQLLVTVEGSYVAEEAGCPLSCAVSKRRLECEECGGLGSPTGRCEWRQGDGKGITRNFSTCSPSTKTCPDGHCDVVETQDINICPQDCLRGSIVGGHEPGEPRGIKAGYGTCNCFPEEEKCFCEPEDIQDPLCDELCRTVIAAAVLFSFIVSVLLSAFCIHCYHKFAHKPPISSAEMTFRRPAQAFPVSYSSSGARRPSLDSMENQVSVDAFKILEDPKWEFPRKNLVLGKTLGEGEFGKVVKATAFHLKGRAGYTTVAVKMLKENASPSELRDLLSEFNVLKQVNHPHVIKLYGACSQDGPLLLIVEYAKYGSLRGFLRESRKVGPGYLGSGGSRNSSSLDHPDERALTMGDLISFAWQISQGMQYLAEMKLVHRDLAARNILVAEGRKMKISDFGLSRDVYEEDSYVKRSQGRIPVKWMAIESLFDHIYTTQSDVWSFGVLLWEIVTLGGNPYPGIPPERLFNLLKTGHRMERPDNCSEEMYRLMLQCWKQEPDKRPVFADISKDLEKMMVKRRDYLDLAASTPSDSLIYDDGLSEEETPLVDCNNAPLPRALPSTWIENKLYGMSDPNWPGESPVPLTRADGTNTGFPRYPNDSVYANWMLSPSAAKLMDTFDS
Outline: as §1

CDK9/cyclin K = CDK9/cyclin K (Homo sapiens (Human), UniProt P50750); test: Reaction Biology HotSpot kinase assay; assay type: biochemical; conditions: 500 nM compound; for inhibition at 0.5 µM: read-out: Percentage kinase inhibition CDK9/cyclin K
Outline: as §1

IR = IR (Homo sapiens (Human), UniProt P06213); test: Reaction Biology HotSpot kinase assay; assay type: biochemical; conditions: 500 nM compound; for inhibition at 0.5 µM: read-out: Percentage kinase inhibition IR
Outline: as §1

CSK = CSK (Homo sapiens (Human), UniProt P41240); test: Reaction Biology HotSpot kinase assay; assay type: biochemical; conditions: 500 nM compound; for inhibition at 0.5 µM: read-out: Percentage kinase inhibition CSK
Outline: as §1

TRKC = TRKC (Homo sapiens (Human), UniProt Q16288); test: Reaction Biology HotSpot kinase assay; assay type: biochemical; conditions: 500 nM compound, 100 μM radiolabeled ATP
Outline: as §2

CDK9/cyclin T1 = CDK9/cyclin T1 (Homo sapiens (Human), UniProt P50750); test: Reaction Biology HotSpot kinase assay; assay type: biochemical; conditions: 500 nM compound; for inhibition at 0.5 µM: read-out: Percentage kinase inhibition CDK9/cyclin T1
Outline: as §1

FMS = FMS (Homo sapiens (Human), UniProt P07333); test: Reaction Biology HotSpot kinase assay; assay type: biochemical; conditions: 500 nM compound; for inhibition at 0.5 µM: read-out: Percentage kinase inhibition FMS
FMS, sequence (P07333 20-972): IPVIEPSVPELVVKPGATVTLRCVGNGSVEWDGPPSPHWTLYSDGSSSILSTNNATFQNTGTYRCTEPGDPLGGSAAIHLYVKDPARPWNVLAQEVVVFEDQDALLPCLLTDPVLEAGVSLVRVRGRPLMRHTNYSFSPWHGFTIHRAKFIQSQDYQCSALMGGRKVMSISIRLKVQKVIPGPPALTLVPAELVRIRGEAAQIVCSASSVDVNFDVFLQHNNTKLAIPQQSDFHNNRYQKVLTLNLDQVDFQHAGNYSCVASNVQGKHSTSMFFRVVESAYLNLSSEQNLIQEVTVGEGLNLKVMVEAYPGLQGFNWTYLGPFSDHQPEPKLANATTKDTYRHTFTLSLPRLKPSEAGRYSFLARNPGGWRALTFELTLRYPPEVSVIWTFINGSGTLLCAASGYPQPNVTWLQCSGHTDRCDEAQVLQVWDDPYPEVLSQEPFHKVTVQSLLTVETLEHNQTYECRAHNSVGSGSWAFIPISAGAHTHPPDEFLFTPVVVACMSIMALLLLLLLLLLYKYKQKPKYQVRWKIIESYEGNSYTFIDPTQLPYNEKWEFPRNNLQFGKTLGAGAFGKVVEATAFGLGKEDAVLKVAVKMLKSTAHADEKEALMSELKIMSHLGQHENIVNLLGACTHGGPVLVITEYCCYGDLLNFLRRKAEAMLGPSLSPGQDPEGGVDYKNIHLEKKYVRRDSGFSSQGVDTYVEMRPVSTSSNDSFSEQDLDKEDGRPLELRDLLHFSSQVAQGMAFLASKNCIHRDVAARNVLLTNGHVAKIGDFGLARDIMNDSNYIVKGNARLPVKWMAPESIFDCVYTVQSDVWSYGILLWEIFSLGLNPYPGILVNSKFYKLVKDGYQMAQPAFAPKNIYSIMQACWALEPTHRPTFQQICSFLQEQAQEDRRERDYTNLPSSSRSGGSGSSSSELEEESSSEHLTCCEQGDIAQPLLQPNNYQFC
Outline: as §1

MST4 = MST4 (Homo sapiens (Human), UniProt Q9P289); test: Reaction Biology HotSpot kinase assay; assay type: biochemical; conditions: 500 nM compound; for inhibition at 0.5 µM: read-out: Percentage kinase inhibition MST4
MST4, sequence (Q9P289 whole entry): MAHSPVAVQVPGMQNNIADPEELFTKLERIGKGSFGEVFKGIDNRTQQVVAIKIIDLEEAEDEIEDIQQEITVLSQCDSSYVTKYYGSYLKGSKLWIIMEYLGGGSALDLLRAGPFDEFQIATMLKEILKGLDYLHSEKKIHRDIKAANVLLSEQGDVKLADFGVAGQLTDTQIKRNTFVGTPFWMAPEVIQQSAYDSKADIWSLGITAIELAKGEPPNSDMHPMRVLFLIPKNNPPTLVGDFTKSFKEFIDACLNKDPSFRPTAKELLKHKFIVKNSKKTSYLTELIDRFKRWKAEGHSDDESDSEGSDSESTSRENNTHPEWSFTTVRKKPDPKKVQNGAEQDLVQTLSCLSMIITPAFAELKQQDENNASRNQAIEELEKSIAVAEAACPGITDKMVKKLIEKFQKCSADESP
Outline: as §1

HCK = HCK (Homo sapiens (Human), UniProt P08631); test: Reaction Biology HotSpot kinase assay; assay type: biochemical; conditions: 500 nM compound; for inhibition at 0.5 µM: read-out: Percentage kinase inhibition HCK
HCK, sequence (P08631 whole entry): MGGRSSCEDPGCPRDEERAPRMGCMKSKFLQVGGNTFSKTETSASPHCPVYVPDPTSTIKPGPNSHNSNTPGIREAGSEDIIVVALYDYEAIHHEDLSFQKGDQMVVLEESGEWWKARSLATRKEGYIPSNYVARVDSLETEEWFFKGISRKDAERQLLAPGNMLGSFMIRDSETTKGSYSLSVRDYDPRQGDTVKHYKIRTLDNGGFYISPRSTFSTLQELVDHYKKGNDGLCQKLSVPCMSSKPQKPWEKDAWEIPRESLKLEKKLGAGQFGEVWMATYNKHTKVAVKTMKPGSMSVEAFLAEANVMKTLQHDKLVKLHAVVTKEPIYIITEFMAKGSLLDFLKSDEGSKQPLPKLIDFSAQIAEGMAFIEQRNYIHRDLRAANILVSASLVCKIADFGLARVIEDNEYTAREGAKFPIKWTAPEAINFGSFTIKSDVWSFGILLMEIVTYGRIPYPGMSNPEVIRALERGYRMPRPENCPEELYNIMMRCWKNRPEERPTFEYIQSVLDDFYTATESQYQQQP
Outline: as §1

CDK9/cyclin T2 = CDK9/cyclin T2 (Homo sapiens (Human), UniProt P50750); test: Reaction Biology HotSpot kinase assay; assay type: biochemical; conditions: 500 nM compound; for inhibition at 0.5 µM: read-out: Percentage kinase inhibition CDK9/cyclin T2
Outline: as §1

JNK1 = JNK1 (Homo sapiens (Human), UniProt P45983); test: Reaction Biology HotSpot kinase assay; assay type: biochemical; conditions: 500 nM compound; for inhibition at 0.5 µM: read-out: Percentage kinase inhibition JNK1
Outline: as §1

CDK1/cyclin E = CDK1/cyclin E (Homo sapiens (Human), UniProt P06493); test: Reaction Biology HotSpot kinase assay; assay type: biochemical; conditions: 500 nM compound; for inhibition at 0.5 µM: read-out: Percentage kinase inhibition CDK1/cyclin E
Outline: as §1

MEK1 = MEK1 (Homo sapiens (Human), UniProt Q02750); test: Reaction Biology HotSpot kinase assay; assay type: biochemical; conditions: 500 nM compound; for inhibition at 0.5 µM: read-out: Percentage kinase inhibition MEK1
Outline: as §1

FAK/PTK2 = FAK/PTK2 (Homo sapiens (Human), UniProt Q05397); test: Reaction Biology HotSpot kinase assay; assay type: biochemical; conditions: 500 nM compound; for inhibition at 0.5 µM: read-out: Percentage kinase inhibition FAK/PTK2
Outline: as §1

P38a/MAPK14 = P38a/MAPK14 (Homo sapiens (Human), UniProt Q16539); test: Reaction Biology HotSpot kinase assay; assay type: biochemical; conditions: 500 nM compound; for inhibition at 0.5 µM: read-out: Percentage kinase inhibition P38a/MAPK14
Outline: as §1

MOLM14 = test: IC50 determination (proliferation assay, CellTiter-Blue); assay type: cell-based
Method: Cell lines were seeded into 96-well plates the afternoon prior to treatment. Approximately 18 hours later, compounds were diluted in dimethyl sulfoxide (DMSO) and added to cells. Plates were incubated for 72 hours and cells viability determined with CellTiter-Blue Cell Viability Assay (Promega, Madison, WI). Plates were read after 4 additional hours of incubation at 37° C. using plate reader (Bio-Tek, Winooski. VT). Data was analyzed and graphed using GraphPad Prism Software (Graphpad. La Jolla, CA). […]

FLT3 (ITD) = FLT3 (ITD) (Homo sapiens, UniProt P36888, ITD); test: DiscoverX Kd Elect binding; conditions: Kd FLT3 (ITD)
Description: (§3) Although the current drugs on the market or in clinical trials are relatively successful in killing the AML leukemia cells, they currently are unable to deal with secondary mutations that occur after TKI treatment, such as FLT3 ([…]).

FLT3 (D835V) = FLT3 (D835V) (Homo sapiens (Human), UniProt P36888, D835V); test: DiscoverX Kd Elect binding
Description: as §3

ABL1 non-phosphorylated = ABL1 non-phosphorylated (Homo sapiens (Human), UniProt P00519); test: DiscoverX Kd Elect binding

- Percentage kinase inhibition IRR/INSRR (IRR/INSRR): 10%
- Percentage kinase inhibition CDK6/cyclin D3 (CDK6/cyclin D3): 50%
- Percentage kinase inhibition Aurora A (Aurora A): 19%
- Percentage kinase inhibition EPHA3 (EPHA3): 0%
- Percentage kinase inhibition BLK (BLK): 10%
- Percentage kinase inhibition ROCK1 (ROCK1): 0%
- Percentage kinase inhibition LYN B (LYN B): 0%
- Percentage kinase inhibition HIPK1 (HIPK1): 42%
- Percentage kinase inhibition RET (RET): 15%
- Percentage kinase inhibition CDK9/cyclin K (CDK9/cyclin K): 53%
- Percentage kinase inhibition IR (IR): 9%
- Percentage kinase inhibition CSK (CSK): 1%
- % inhibition of TrkC (TRKC): 81%
- Percentage kinase inhibition CDK9/cyclin T1 (CDK9/cyclin T1): 41%
- Percentage kinase inhibition FMS (FMS): 35%
- Percentage kinase inhibition MST4 (MST4): 0%
- Percentage kinase inhibition HCK (HCK): 2%
- Percentage kinase inhibition CDK9/cyclin T2 (CDK9/cyclin T2): 65%
- Percentage kinase inhibition JNK1 (JNK1): 0%
- Percentage kinase inhibition CDK1/cyclin E (CDK1/cyclin E): 13%
- Percentage kinase inhibition MEK1 (MEK1): 0%
- Percentage kinase inhibition FAK/PTK2 (FAK/PTK2): 6%
- Percentage kinase inhibition P38a/MAPK14 (P38a/MAPK14): 0%
- IC50 (MOLM14): 102 ± 11 nM
Compound: CN(C)CC(O)CNC(=O)c1ccc(C#Cc2c(N)ncc3ccc(Cl)cc23)cc1 (stereo not shown) [HSM1702]

- inhibition at 0.5 µM (TRKC): 0%
- IC50 (MOLM14; Homo sapiens, MOLM-14): 415 ± 6.9 nM
Compound: Cc1ccc(C(=O)Nc2ccc(CN3CCN(C)CC3)c(C(F)(F)F)c2)cc1C#Cc1cc(N)nc2ccccc12 [HSN285]

- inhibition at 0.5 µM (IRR/INSRR): 0%
- inhibition at 0.5 µM (CDK6/cyclin D3): 0%
- inhibition at 0.5 µM (Aurora A): 0%
- inhibition at 0.5 µM (EPHA3): 6%
- inhibition at 0.5 µM (BLK): 30%
- inhibition at 0.5 µM (ROCK1): 3%
- inhibition at 0.5 µM (LYN B): 35%
- inhibition at 0.5 µM (HIPK1): 0%
- inhibition at 0.5 µM (RET): 96%
- inhibition at 0.5 µM (CDK9/cyclin K): 7%
- inhibition at 0.5 µM (IR): 9%
- inhibition at 0.5 µM (CSK): 0%
- inhibition at 0.5 µM (TRKC): 4%
- inhibition at 0.5 µM (CDK9/cyclin T1): 0%
- inhibition at 0.5 µM (FMS): 93%
- inhibition at 0.5 µM (MST4): 0%
- inhibition at 0.5 µM (HCK): 18%
- inhibition at 0.5 µM (CDK9/cyclin T2): 0%
- inhibition at 0.5 µM (JNK1): 0%
- inhibition at 0.5 µM (CDK1/cyclin E): 0%
- inhibition at 0.5 µM (MEK1): 2%
- inhibition at 0.5 µM (FAK/PTK2): 0%
- inhibition at 0.5 µM (P38a/MAPK14): 5%
- IC50 (MOLM14; Homo sapiens, MOLM-14): 456 ± 15 nM
Compound: COc1cc2nc(N)nc(C#Cc3cc(C(=O)Nc4ccc(CN5CCN(C)CC5)c(C(F)(F)F)c4)ccc3C)c2cc1OC [HSN325]

Second part, the compound before the results:

Compound: Cc1ccc(C(=O)Nc2ccc(CN3CCN(C)CC3)c(C(F)(F)F)c2)cc1C#Cc1c(N)ncc2ccc(Cl)cc12 [HSN286]
- Kd (FLT3 (ITD)): 27.6 nM and 26 nM
- Kd (FLT3 (D835V)): 120 nM
- Kd (ABL1 non-phosphorylated): 7.2 nM
- inhibition at 0.5 µM (IRR/INSRR): 0%
- inhibition at 0.5 µM (CDK6/cyclin D3): 7%
- inhibition at 0.5 µM (Aurora A): 0%
- inhibition at 0.5 µM (EPHA3): 96%
- inhibition at 0.5 µM (BLK): 100%
- inhibition at 0.5 µM (ROCK1): 0%
- inhibition at 0.5 µM (LYN B): 95%
- inhibition at 0.5 µM (HIPK1): 0%
- inhibition at 0.5 µM (RET): 100%
- inhibition at 0.5 µM (CDK9/cyclin K): 24%
- inhibition at 0.5 µM (IR): 16%
- inhibition at 0.5 µM (CSK): 93%
- inhibition at 0.5 µM (TRKC): 91%
- inhibition at 0.5 µM (CDK9/cyclin T1): 0%
- inhibition at 0.5 µM (FMS): 99%
- inhibition at 0.5 µM (MST4): 0%
- inhibition at 0.5 µM (HCK): 95%
- inhibition at 0.5 µM (CDK9/cyclin T2): 0%
- inhibition at 0.5 µM (JNK1): 7%
- inhibition at 0.5 µM (CDK1/cyclin E): 0%
- inhibition at 0.5 µM (MEK1): 0%
- inhibition at 0.5 µM (FAK/PTK2): 0%
- inhibition at 0.5 µM (P38a/MAPK14): 81%
- IC50 (MOLM14): 0.72 ± 0.02 nM
- IC50 (MOLM14; Homo sapiens, MOLM-14): 0.7 nM

Compound: Cc1ccc(C(=O)Nc2ccc(CN3CCN(C)CC3)c(C(F)(F)F)c2)cc1C#Cc1cnc(N)c2ccccc12 [HSN334, 3-((1-aminoisoquinolin-4-yl)ethynyl)-4-methyl-N-(4-((4-methylpiperazin-1-yl)methyl)-3-(trifluoromethyl)phenyl)benzamide]
- Kd (FLT3 (ITD)): 19 nM
- Kd (FLT3 (D835V)): 120 nM
- Kd (ABL1 non-phosphorylated): 4.4 nM
- inhibition at 0.5 µM (RET): 100%
- proliferation inhibition in words, MOLM-14 (MOLM14): potent proliferation inhibitors
- IC50 (MOLM14; Homo sapiens, MOLM-14): 1.61 ± 0.02 nM

Compound: Cc1ccc(C(=O)Nc2ccc(CN3CCN(C)CC3)c(C(F)(F)F)c2)cc1C#Cc1cnc(N)c2ncccc12 [HSN356, 3-((8-amino-1,7-naphthyridin-5-yl)ethynyl)-4-methyl-N-(4-((4-methylpiperazin-1-yl)methyl)-3-(trifluoromethyl)phenyl)benzamide]
- Kd (FLT3 (ITD)): 6.7 nM
- Kd (FLT3 (D835V)): 19 nM
- Kd (ABL1 non-phosphorylated): 2.5 nM
- inhibition at 0.5 µM (RET): 100%
- inhibition at 0.5 µM (TRKC): 59%
- proliferation inhibition in words, MOLM-14 (MOLM14): potent proliferation inhibitors
- IC50 (MOLM14; Homo sapiens, MOLM-14): 0.62 ± 0.02 nM
